Measurements as given in patent publication US20090311348A1, “PHARMECEUTICAL AND COSMETIC USE OF SILICA” (priority 2006, published 2009).
“Also recorded” adds a separate entry of the source.

How the values were obtained:
Format in all cases: cell-based
[1] = tested on: Involucrin; test: Induction of differentiation marker involucrin in human epidermal keratinocytes (real time RT-PCR); settings: NHEK, several concentrations
Protocol: (§1) Silica mud precipitate was obtained from a natural source (Blue Lagoon geothermal basin, Svartsengi, Iceland). Sodium metasilicate was obtained from Prof. Dr. G. Lehmann, Biochemistry, Regensburg University. As control a ceramide mix (10 μM) was used to induce the differentiation markers.
(§2) Long term cultured normal human epidermal keratinocytes, NHEK, prepared from neonatal foreskin are cultured in Keratinocyte SFM (Invitrogen™, Heidelberg, Germany) supplemented with bovine pituitary extract (Invitrogen, Heidelberg, Germany) and recombinant epidermal growth factor (Invitrogen, Heidelberg, Germany). Cells are propagated up to passage 2 or 3 at 37° C. and 5% CO2. For induction of differentiation NHEKs are seeded in 6-well plates and grown up to confluence and treated with several concentrations of the silica preparates.
(§3) Total RNA was isolated using RNeasy Total RNA Kits (Qiagen, Hilden, Germany). The RNA concentration was determined via photometric measurement at 260/280 (Biophotometer, Eppendorf AG, Hamburg, Germany). An aliquot of 10 ng RNA was used for cDNA synthesis. […]
(§4) PCR reactions were carried out on an opticon 1 (MJ Research, Waltham, Mass., USA) using SYBR Green® PCR Master Mix (Applied Biosystems, Darmstadt, Germany). Each sample was analyzed in double employing the universal protocol over 36 cycles. […]

[2] = tested on: transglutaminase-1; test: Induction of differentiation marker transglutaminase-1 in human epidermal keratinocytes (real time RT-PCR); settings: NHEK, several concentrations
Protocol: as §1, §2, §3, §4

[3] = tested on: Filaggrin; test: Induction of differentiation marker filaggrin in human epidermal keratinocytes (real time RT-PCR); settings: NHEK, several concentrations
Protocol: as §1, §2, §3, §4

[4] = tested on: Loricrin; test: Induction of differentiation marker loricrin in human epidermal keratinocytes (real time RT-PCR); settings: NHEK, several concentrations
Protocol: as §1, §2, §3, §4

[5] = tested on: collagen 1A1; test: Collagen 1A1 gene expression in human dermal fibroblasts; settings: real time RT-PCR
Source text: Human dermal fibroblasts, HDF, prepared from neonatal foreskin and cultured for 4 days until they reached confluence as described in Example 3.

**Q.** With `O=[Si]([O-])[O-].[Na+].[Na+]` [sodium metasilicate] as the molecule, how does the expression of involucrin [1] read?
**A.** Its expression of involucrin is “substantial up-regulation; also recorded: induced”.

**Q.** And the “expression of transglutaminase-1” value [2]?
**A.** Its value is “substantial up-regulation; also recorded: induced”.

**Q.** And the expression of filaggrin [3]?
**A.** Its expression of filaggrin is “substantial up-regulation; also recorded: induced; also recorded: stronger than with silica mud”.

**Q.** And the expression of loricrin [4]?
**A.** The expression of loricrin was “induced”.

**Q.** What about the “collagen 1A1 gene expression” value [5] of the same molecule?
**A.** The value was “did not show any increase”.
